Results taken from PubChem BioAssay (NCI).
Where “and” joins values, the source holds several entries; their conditions need not be identical. Equal entries are not always repeated.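 All cell lines were grown in 96-well plates and treated with compound for 48 hours. GI50: concentration for 50% inhibition of growth. TGI is the concentration that stops growth completely.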

Experiments:
Assay in all cases: inhibition of tumour cell growth, NCI panel, 48 h
DU-145 prostate = test system: DU-145 prostate
HOP-62 NSCLC = test system: HOP-62 NSCLC
LOX IMVI melanoma = test system: LOX IMVI melanoma
NCI-H23 lung = test system: NCI-H23 lung
NCI-H460 lung = test system: NCI-H460 lung
NCI-H522 lung = test system: NCI-H522 lung
SF-539 CNS = test system: SF-539 CNS
SNB-75 CNS = test system: SNB-75 CNS
UACC-257 melanoma = test system: UACC-257 melanoma
U251 CNS = test system: U251 CNS

SMILES	GI50 (DU-145 prostate)	TGI (DU-145 prostate) [µM]	GI50 (HOP-62 NSCLC)	TGI (HOP-62 NSCLC)	GI50 (LOX IMVI melanoma)	TGI (LOX IMVI melanoma)	GI50 (NCI-H23 lung) [µM]	TGI (NCI-H23 lung) [µM]	GI50 (NCI-H460 lung) [µM]	TGI (NCI-H460 lung) [µM]	GI50 (NCI-H522 lung) [µM]	TGI (NCI-H522 lung)	GI50 (SF-539 CNS) [µM]	TGI (SF-539 CNS)	GI50 (SNB-75 CNS) [µM]	TGI (SNB-75 CNS) [µM]	GI50 (UACC-257 melanoma) [µM]	TGI (UACC-257 melanoma) [µM]	GI50 (U251 CNS)	TGI (U251 CNS)
O=c1c2cc(F)ccc2sc2c(N3CCNCC3)nc3ccc(F)cc3c12	1.68 µM	3.09	1.82 µM	3.85 µM	1.62 µM	3.16 µM	1.67	3.17	1.59	3.12	1.7	3.39 µM	1.72	3.15 µM	1.42	2.82	1.88	3.7	–	–
O=S(=O)(NCCNc1nccc(-c2c(-c3ccc(F)c(O)c3)nc3sccn23)n1)c1ccc(F)cc1	3.47 µM	29.2	5.09 µM	74.4 µM	0.675 µM	18 µM	4.07	22.4	3.43	17.2	3.31	19.2 µM	4.54	25.3 µM	1.55	8.81	1.71	18.3	4.75 µM	> 100 µM
Nc1ccccc1C#C/C=C\C#Cc1ccc(OCCCNC(=O)c2cc3ccccc3[nH]2)cc1	35.4 µM	> 100	15.7 µM	35.7 µM	2.77 µM	28.7 µM	7.62	43.6	9.83	> 100	> 100	> 100 µM	18.2	37.5 µM	11.2	73.3	13	53.3	12.5 µM	25 µM
COc1ccc(-c2cs/c(=N\N=C\c3ccc(O)cc3O)n2/N=C/c2ccc(O)cc2O)cc1	2.21 µM	5.84	–	–	1.76 µM	3.68 µM	1.95	4.64	2.01	4.43	1.88	4.68 µM	1.9	3.75 µM	1.58	3.08	2.28	6.19	1.86 µM	3.91 µM
[C](#Cc1ccccc1)[Hg][C]#Cc1ccccc1	48.2 µM	> 100	> 100 µM	> 100 µM	25.4 µM	63.7 µM	37.8	> 100	86.2	> 100	19.4	46.1 µM	53.1	> 100 µM	> 100	> 100	22.5	41.6	22.4 µM	43.9 µM
FC(F)(c1ccc2ncccc2c1)c1nnc2ccc(-c3ccncc3)nn12	> 100 µM	> 100	62.7 µM	> 100 µM	49.6 µM	> 100 µM	> 100	> 100	> 100	> 100	> 100	> 100 µM	46.4	> 100 µM	19	> 100	> 100	> 100	95.2 µM	> 100 µM
CCOC(=O)Nc1nc2ccc(OC)cc2s1	> 100 µM	> 100	> 100 µM	> 100 µM	> 100 µM	> 100 µM	> 100	> 100	> 100	> 100	> 100	> 100 µM	> 100	> 100 µM	> 100	> 100	> 100	> 100	> 100 µM	> 100 µM
O=C(/C=C/c1ccccc1)C(Br)C(Br)c1ccccc1 (stereo not drawn)	1.64 µM	3.24	4.06 µM	14.9 µM	1.52 µM	2.91 µM	–	–	2.37	5.97	1.04	2.31 µM	1.87	3.86 µM	3.06	17.5	1.59	3.66	1.68 µM	3.81 µM
COc1cc2ncn(-c3cc(OCc4ccccc4C(F)(F)F)c(C(=O)N(C)C)s3)c2cc1OC	> 25 µM	> 25	> 13.5 µM	> 25 µM	> 25 µM	> 25 µM	> 25	> 25	> 25	> 25	17.3	> 25 µM	> 25	> 25 µM	> 18.6	> 25	> 25	> 25	> 25 µM	> 25 µM
O=[N+]([O-])c1cc(Cl)c2[nH]c3c(Cl)cc([N+](=O)[O-])cc3c2c1	0.508 µM	> 100	0.971 µM	> 38.4 µM	0.308 µM	> 42 µM	0.213	28.2	0.311	> 100	0.286	> 100 µM	0.653	> 92.2 µM	0.511	9.35	0.159	0.996	0.286 µM	5.43 µM
COc1cc(C2SCCCCCCCCCCSC(c3ccc(O)c(OC)c3)SCCCCCCCCCCS2)ccc1O (stereo not drawn)	–	> 100	–	> 100 µM	–	> 100 µM	–	> 100	–	–	–	> 100 µM	–	–	–	> 100	–	> 100	–	> 100 µM
COc1cccc(/C(C#N)=C/c2nc3c(N4CCOCC4)nc(Cl)nc3n2C)c1	1.29 µM	2.58	1.6 µM	3.64 µM	1.01 µM	2.25 µM	1.52	3.19	1.71	3.65	0.567	2.2 µM	1.44	2.79 µM	0.305	1.79	1.41	2.9	1.26 µM	2.66 µM
CC1CCC2(NC1)OC1CC3C4CC=C5CC(O)CCC5(C)C4CCC3(C)C1C2C (stereo not drawn)	94.2 µM and 35.3 µM	> 100	27.4 µM and 9.34 µM	92.4 µM and 46.2 µM	19.9 µM and 4.93 µM	57.3 µM and > 63.8 µM	–	> 100	–	> 100	–	> 100 µM and 62.9 µM	–	40.1 µM and 29.4 µM	–	15.3	–	> 100	23.7 µM and 4.92 µM	64.7 µM and 23.5 µM
CCCCCCCCOC(=O)CC[C@@H](C)[C@H]1CC[C@H]2[C@@H]3[C@H](OC(=O)CCN)C[C@@H]4C[C@H](OC(=O)CCN)CC[C@]4(C)[C@H]3C[C@H](OC(=O)CCN)[C@]12C	3.4 µM	9.7	2.71 µM	7.14 µM	2.23 µM	4.51 µM	10	29.9	3.18	10.6	2.26	4.42 µM	3.01	8.77 µM	3.32	13.6	3.84	16.5	1.95 µM	3.61 µM
Cc1nc(-c2ccccc2)n2nc(NCCCN3CCOCC3)ncc12	22.7 µM	> 25	> 25 µM	> 25 µM	15.1 µM	> 25 µM	> 25	> 25	21.2	> 25	> 25	> 25 µM	> 25	> 25 µM	> 11.9	> 25	> 25	> 25	> 25 µM	> 25 µM
CC(=O)Oc1ccc(C23c4ccccc4C2(OC(C)=O)c2cc(OC(C)=O)ccc23)cc1 (stereo not drawn)	6.88 µM	20.7	8.78 µM	34.5 µM	3.48 µM	12.8 µM	10.2	28.5	12.3	44.4	2.81	8.04 µM	6.48	28.6 µM	6.49	54.7	22.9	60.8	2.34 µM	5.63 µM
COc1ccc(NC(=O)CSC2=C(Nc3cccc(Br)c3)C(=O)N(Cc3ccccc3)C2=O)cc1Cl	> 100 µM	> 100	> 100 µM	> 100 µM	40.4 µM	> 100 µM	–	–	29.9	> 100	6.85	82.2 µM	> 100	> 100 µM	> 100	> 100	> 100	> 100	35.5 µM	> 100 µM
S=c1snc2n1CCN2	91.3 µM	> 100	> 100 µM	> 100 µM	81.7 µM	> 100 µM	> 100	> 100	54.9	> 100	40.9	> 100 µM	> 100	> 100 µM	> 100	> 100	> 100	> 100	> 100 µM	> 100 µM
CN(CCCCCl)P(=O)(OCCS(=O)(=O)CC(NC(=O)CCC(N)C(=O)O)C(=O)NC(C(=O)O)c1ccccc1)OCC1OC(n2ccc(N)nc2=O)C(F)(F)C1O (stereo not drawn)	0.0359 µM	25.9	0.0861 µM	> 85.9 µM	0.467 µM	> 100 µM	0.0483	16.8	0.104	> 100	3.79	> 100 µM	0.0338	0.689 µM	0.825	> 25.2	25	> 100	0.23 µM	> 100 µM
CC(=O)c1ccc2c(c1)C1C=CCC1[C@H](c1cc3c(cc1Br)OCO3)N2 (stereo partly drawn)	0.893 µM	4.44	1.9 µM	28.9 µM	1.31 µM	2.62 µM	2.24	33.4	0.954	4.81	0.84	4.87 µM	0.893	2.37 µM	0.5	7.55	5.34	27	1.1 µM	11.9 µM
NS(=O)(=O)c1ccc(-n2nc3c(c2-c2ccc(Cl)cc2)Cc2ccccc2-3)cc1	15.1 µM	33	30.4 µM	49.4 µM	19 µM	37.4 µM	3.27	19.6	32.1	> 100	5.63	19.3 µM	17.5	31.6 µM	14.6	30.5	20.6	39.5	19.5 µM	37.3 µM
C=CCn1c(C)nc2ccc(Nc3nc(Nc4ccc(F)cc4)nc4ccccc34)cc21	8.63 µM	22.8	–	–	4.36 µM	23 µM	4.23	26	3.11	14.5	3.12	13.4 µM	12.3	25.7 µM	1.51	3.37	13.1	29.9	3.15 µM	14.9 µM
COc1ccc(-c2ccncc2)cc1C(N)=O	> 25 µM	> 25	> 25 µM	> 25 µM	> 25 µM	> 25 µM	> 25	> 25	> 25	> 25	> 25	> 25 µM	> 25	> 25 µM	> 25	> 25	> 25	> 25	> 25 µM	> 25 µM
C[C@@H]1C[C@H](C)CN(S(=O)(=O)c2ccc3c(NO)c4ccc(S(=O)(=O)N5C[C@H](C)C[C@H](C)C5)cc4c(N=O)c3c2)C1	0.115 µM	0.268	0.171 µM	0.324 µM	0.105 µM	0.242 µM	0.185	0.4	0.0565	0.222	0.181	0.36 µM	0.0564	0.207 µM	0.123	0.255	–	–	0.129 µM	0.266 µM
OCc1ccc(N2CCc3cccc(F)c3C2)cc1Cl	4.5 µM	30.3	0.0275 µM	27.2 µM	23.5 µM	> 63.2 µM	13.9	40.9	< 0.0194	1.23	13.4	36.3 µM	27.8	> 87.7 µM	13.9	47.7	–	–	< 0.0297 µM	36.3 µM
